{"source": "patent US12414911B2", "about": "“Topical compositions and methods of use” (priority 2012, dated 2025)", "key": {"[1]": {"tested_on": "T. Rubrum", "test": "Agar-solid Diffusion Method, inhibition zone", "type": "cell-based", "settings": "Trichophyton rubrum"}, "[2]": {"tested_on": "C. Albicans", "test": "Agar-solid Diffusion Method, inhibition zone", "type": "cell-based", "settings": "Candida albicans"}, "[3]": {"tested_on": "E. Coli", "test": "Agar-solid Diffusion Method, inhibition zone", "type": "cell-based", "settings": "Escherichia coli"}, "[4]": {"tested_on": "P. Acnes", "test": "Agar-solid Diffusion Method, inhibition zone", "type": "cell-based", "settings": "Cutibacterium acnes"}, "[5]": {"tested_on": "Staph Aureus", "test": "Agar-solid Diffusion Method, inhibition zone", "type": "cell-based", "settings": "Staphylococcus aureus"}, "[6]": {"test": "UVB SPF activity of formulations", "type": "in vivo, human", "settings": "Octinoxate 3% alone", "procedure": "Formulations containing MFSO and octyl methoxycinnamate (Octinoxate), alone and in combination, were prepared without changing the vehicle base and tested for UVB SPF activity (2 subjects).\nTo evaluate for SPF boosting effects of MFSO, a concentration of Octinoxate was selected that gave SPF values that would allow for its efficient absorption and avoid the saturation effect that occurs when higher concentrations of sunscreens are used."}, "[7]": {"tested_on": "Normal human spermatozoa", "test": "Spermicidal activity (Sander-Cramer assay)", "type": "cell-based", "parameters": "key: +: Mobile; −: Immobile; ±: 90% lost mobility", "settings": "1% concentration", "description": "Normal human spermatozoa were used to assess the spermicidal activity (Sander-Cramer assay) of MFSO as described (Benhong Z., Zhenpeng Q, Gang L, Chun L, Zhang J. Spermicidal and antigonococcal effects of tannins from pomegranate rind. Journal of Medicinal Plants Research 2012 February; 6 (7); 1334-1339). Nonoxynol-9 was used as a positive reference standard and semen added to physiological saline was used as the negative control. Semen samples were donated by 3 healthy fertile men. The minimum MFSO concentration that caused 100% immobilization of sperm within 20 seconds was considered to be the minimal effective concentration (MEC)."}, "[8]": {"tested_on": "LTB4 release from macrophages", "test": "Inhibition of LTB4 release from stimulated macrophage cell line (radioimmunoassay)", "type": "cell-based", "settings": "NDGA 25 uM, positive control", "procedure": "MFSO and the MFB skin extract have Anti-inflammatory Activity.\nMFSO and the MFB skin extract were dissolved in DMSO and added to cell culture medium at a stock concentration for use in these in vitro experiments. The ability of MFSO to function as an inhibitor of LTB4 release was evaluated using a macrophage cell line followed by the addition of calcium iontophore for stimulation of LTB4 and the use of a radioimmunoassay (Amersham) for LTB4 detection as previously described (Garrido G, González D, Lemus Y, Garcia D, Lodeiro L, Quintero G, Delporte C, Núñez-Sellés A J, Delgado R. In vivo and in vitro anti-inflammatory activity of Mangifera indica L. extract (VIMANG). Pharmacol Res. 2004 August; 50 (2):143-9). NDGA (25 uM) is a known positive control that inhibits LTB4 release and the vehicle control consisted of DMSO in culture medium with no MFSO."}}, "data": [{"compound": "CC(=O)N1CCN(c2ccc(OCC3COC(Cn4ccnc4)(c4ccc(Cl)cc4Cl)O3)cc2)CC1", "note": "(stereo not shown) [Ketoconazole]", "values": [{"measurement": "zone of inhibition at 1000 µM", "setting": "[1]; 1 mM", "value": 25, "unit": "mm"}, {"measurement": "zone of inhibition at 1000 µM", "setting": "[2]; 1 mM", "value": 25, "unit": "mm"}, {"measurement": "zone of inhibition at 1000 µM", "setting": "[3]; read-out: Inhibition Zone", "value": 0, "unit": "mm"}, {"measurement": "zone of inhibition at 1000 µM", "setting": "[4]; 1 mM", "value": 0, "unit": "mm"}, {"measurement": "zone of inhibition at 1000 µM", "setting": "[5]; 1 mM", "value": 0, "unit": "mm"}]}, {"compound": "CCCCC(CC)COC(=O)C=Cc1ccc(OC)cc1", "note": "(stereo not shown) [Octinoxate, octyl methoxycinnamate]", "values": [{"measurement": "SPF", "setting": "[6]", "value": 3}]}, {"compound": "Nonoxynol-9", "values": [{"measurement": "Sperm Motility", "setting": "[7]; action time 20 seconds", "value": "−"}, {"measurement": "Sperm Motility", "setting": "[7]; action time 60 seconds", "value": "−"}]}, {"compound": "CC(Cc1ccc(O)c(O)c1)C(C)Cc1ccc(O)c(O)c1", "note": "(stereo not shown) [NDGA]", "values": [{"measurement": "inhibition of LTB4 release", "setting": "[8]", "value": 98, "unit": "%"}]}, {"compound": "O=C(N[C@H](CO)[C@H](O)c1ccc([N+](=O)[O-])cc1)C(Cl)Cl", "note": "[Chloramphenicol]", "values": [{"measurement": "zone of inhibition at 30 µM", "setting": "[1]; 30 uM", "value": 0, "unit": "mm"}, {"measurement": "zone of inhibition at 30 µM", "setting": "[2]; 30 uM", "value": 0, "unit": "mm"}, {"measurement": "zone of inhibition at 30 µM", "setting": "[3]; 30 uM", "value": 0, "unit": "mm"}, {"measurement": "zone of inhibition at 30 µM", "setting": "[4]; 30 uM", "value": 25, "unit": "mm"}, {"measurement": "zone of inhibition at 30 µM", "setting": "[5]; 30 uM", "value": 25, "unit": "mm"}]}, {"compound": "O=C(O)c1cn(C2CC2)c2cc(N3CCNCC3)c(F)cc2c1=O", "note": "[Ciprofloxacin]", "values": [{"measurement": "zone of inhibition at 10 µM", "setting": "[1]; 10 uM", "value": 0, "unit": "mm"}, {"measurement": "zone of inhibition at 10 µM", "setting": "[2]; 10 uM", "value": 0, "unit": "mm"}, {"measurement": "zone of inhibition at 10 µM", "setting": "[3]; 10 uM", "value": 25, "unit": "mm"}, {"measurement": "zone of inhibition at 10 µM", "setting": "[4]; 10 uM", "value": 22, "unit": "mm"}, {"measurement": "zone of inhibition at 10 µM", "setting": "[5]; 10 uM", "value": 25, "unit": "mm"}]}]}
